The structures appear in SMILES notation.

The assay deals with T1, PD-1/PD-L1 (Homo sapiens, UniProt Q9NZQ7).
T1 construct: purchased CisBio
T1 sequence (Q9NZQ7 19-238 limits assumed): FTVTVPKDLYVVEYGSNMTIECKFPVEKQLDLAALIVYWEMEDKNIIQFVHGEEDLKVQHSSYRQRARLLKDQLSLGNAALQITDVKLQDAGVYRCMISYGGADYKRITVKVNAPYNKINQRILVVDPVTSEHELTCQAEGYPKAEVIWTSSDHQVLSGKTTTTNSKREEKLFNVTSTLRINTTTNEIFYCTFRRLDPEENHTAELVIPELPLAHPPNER
The assay is described as follows: PD1-PDL1 HTRF assay. As to conditions: PD-1/PD-L1 homogenous time-resolved fluorescence (HTRF) binding assay; Tag1-PDL1 5 nM, Tag2-PD1 50 nM. An excerpt:
The CisBio HTRF assay kit, purchased from CisBio only, was employed to determine the IC50 values of compounds. The PD1-PDL1 HTRF assay measures the interactions between the two proteins, PD1 and PDL1. The interaction is detected by using anti-Tag1 labeled with Europium (HTRF donor) which binds to PDL1 and anti-Tag2 labeled with XL665 (HTRF acceptor) which binds to PD1. When the two antibodies are in proximity, the excitation of the donor fluorophore results in FRET emission from the acceptor fluorophore. The presence of inhibitors for such an interaction result in reduction of HTRF signal.
The assay was conducted in 96-well white assay plates. All the reagents, including Tag1-PDL1, Tag2-PD1, Anti-Tag1-PDL1, Anti-Tag2-PD1 were thawed and diluted with PPI Europium Detection buffer to achieve the desired concentration as per the manufacturer's protocol. A 1000 μM stock solution of test inhibitors was prepared in DMSO. The stock solution was diluted in DMSO to prepare 8 concentrations (1000-0.001 μM). These stock solutions were further diluted in PPI Europium detection buffer to prepare 8 working stock solutions (100-0.0001 μM). To the 96-well plate, 2 μL of the test inhibitor working stock solutions were added followed by 4 μL of Tag1-PDL1 (5 nM) and 4 μL of Tag2-PD1 (50 nM). The plate was incubated at room temperature for 15 min. Subsequently, 10 μL of pre-mixed Anti-Tag1-PDL1 and Anti-Tag2-PD1 solution was added. The plate was sealed and incubated at room temperature for 1 h. The HTRF signal was read on Perkin Elmer Envision plate reader using excitation wavelength of 320 nm, emission wavelengths of 620 nm and 665 nm. Results were obtained by calculating the ratio of signal from acceptor at 665 nm to that of signal from donor at 620 nm multiplied by […]. The IC50 values were determined by the Hill equation using GraphPad Prism software.
(TR-FRET usually uses a lanthanide donor and a delayed reading to cut background.)
On to `Cc1c(-c2ccc3c(c2)OCCO3)cccc1-c1ccn2c(-c3ccc(CN4CCC[C@H]4C(=O)O)cc3)cnc2c1` [Example 28, (4-(7-(3-(2,3-dihydrobenzo[b][1,4]dioxin-6-yl)-2-methylphenyl)imidazo[1,2-a]pyridin-3-yl)benzyl)-L-proline], for which the half-maximal inhibitory concentration (IC50) (as a rule, the point on the concentration scale where inhibition reaches its midpoint) was in the range of 100 to 1000 nM.

In turn, `Cc1c(-c2ccc3c(c2)OCCO3)cccc1-c1ccn2c(-c3ccc(CN4CC[C@@H]4C(=O)O)cc3)cnc2c1` [Example 29, (R)-1-(4-(7-(3-(2,3-dihydrobenzo[b][1,4]dioxin-6-yl)-2-methylphenyl)imidazo[1,2-a]pyridin-3-yl)benzyl)azetidine-2-carboxylic acid] displayed a concentration for half-maximal inhibition (IC50) of 100 to 1000 nM. The result for `Cc1c(-c2ccc3c(c2)OCCO3)cccc1-c1ccn2c(-c3ccc(CNCC(O)CC(=O)O)cc3)cnc2c1` (stereo not drawn) [Example 30, 4-((4-(7-(3-(2,3-dihydrobenzo[b][1,4]dioxin-6-yl)-2-methylphenyl)imidazo[1,2-a]pyridin-3-yl)benzyl)amino)-3-hydroxybutanoic acid] reads 100 to 1000 nM; that for `Cc1c(-c2ccc3c(c2)OCCO3)cccc1-c1ccn2c(-c3ccc(CNC[C@@H](O)CO)cc3)cnc2c1` [Example 31, (R)-3-((4-(7-(3-(2,3-dihydrobenzo[b][1,4]dioxin-6-yl)-2-methylphenyl)imidazo[1,2-a]pyridin-3-yl)benzyl)amino)propane-1,2-diol], 100 to 1000 nM; that for `Cc1c(-c2ccc3c(c2)OCCO3)cccc1-c1ccn2c(-c3ccc(CNC[C@H](O)CO)cc3)cnc2c1` [Example 32, (S)-3-((4-(7-(3-(2,3-dihydrobenzo[b][1,4]dioxin-6-yl)-2-methylphenyl)imidazo[1,2-a]pyridin-3-yl)benzyl)amino)propane-1,2-diol], 100 to 1000 nM. As for `Cc1c(-c2ccc3c(c2)OCCO3)cccc1-c1ccn2c(-c3ccc(CN4CCCCC4C(=O)O)cc3)cnc2c1` (stereo not drawn) [Example 36, 1-(4-(7-(3-(2,3-dihydrobenzo[b][1,4]dioxin-6-yl)-2-methylphenyl)imidazo[1,2-a]pyridin-3-yl)benzyl)piperidine-2-carboxylic acid], the figure is 100 to 1000 nM. As for `Cc1c(-c2ccc3c(c2)OCCO3)cccc1-c1ccn2c(-c3ccc(CN4CCC[C@H]4C(=O)O)cc3)cnc2c1` [Example 37, (4-(7-(3-(2,3-dihydrobenzo[b][1,4]dioxin-6-yl)-2-methylphenyl)imidazo[1,2-a]pyridin-3-yl)benzyl)proline], the figure is 100 to 1000 nM; as for `Cc1c(-c2ccc3c(c2)OCCO3)cccc1-c1ccn2c(-c3ccc(CN4C[C@@H](C(=O)O)C[C@H]4O)cc3)cnc2c1` [Example 38, (3S,5R)-1-(4-(7-(3-(2,3-dihydrobenzo[b][1,4]dioxin-6-yl)-2-methylphenyl)imidazo[1,2-a]pyridin-3-yl)benzyl)-5-hydroxypyrrolidine-3-carboxylic acid], 100 to 1000 nM. Take `COc1cc(-c2cnc3cc(-c4cccc(-c5ccc6c(c5)OCCO6)c4C)ccn23)cc(OC)c1CN1CCC[C@H]1C(=O)O` [Example 40, (4-(7-(3-(2,3-dihydrobenzo[b][1,4]dioxin-6-yl)-2-methylphenyl)imidazo[1,2-a]pyridin-3-yl)-2,6-dimethoxybenzyl)-L-proline]: the half-inhibitory concentration (IC50) lay in the range of 100 to 1000 nM.

The molecule `Cc1c(-c2ccc3c(c2)OCCO3)cccc1-c1ccn2c(-c3ccc(C(=O)NCC(=O)O)cc3)cnc2c1` [Example 41, (4-(7-(3-(2,3-dihydrobenzo[b][1,4]dioxin-6-yl)-2-methylphenyl)imidazo[1,2-a]pyridin-3-yl)benzoyl)glycine] gave a concentration for half-maximal inhibition (IC50) of 100 to 1000 nM. As for `Cc1c(-c2ccc3c(c2)OCCO3)cccc1-c1ccn2c(-c3ccc(C(=O)N4CCC[C@@H]4C(=O)O)cc3)cnc2c1` [Example 42, (4-(7-(3-(2,3-dihydrobenzo[b][1,4]dioxin-6-yl)-2-methylphenyl)imidazo[1,2-a]pyridin-3-yl)benzoyl)-D-proline], the figure is 100 to 1000 nM. The result for `Cc1c(-c2ccc3c(c2)OCCO3)cccc1-c1ccn2c(-c3ccc(C(=O)N4CCC[C@H]4C(=O)O)cc3)cnc2c1` [Example 43, (4-(7-(3-(2,3-dihydrobenzo[b][1,4]dioxin-6-yl)-2-methylphenyl)imidazo[1,2-a]pyridin-3-yl)benzoyl)-L-proline] reads 100 to 1000 nM; that for `Cc1c(-c2ccccc2)cccc1-c1ccn2c(-n3ccc(C(=O)NCCO)n3)cnc2c1` [Example 44, N-(2-hydroxyethyl)-1-(7-(2-methyl-[1,1′-biphenyl]-3-yl)imidazo[1,2-a]pyridin-3-yl)-1H-pyrazole-3-carboxamide], 100 to 1000 nM. The result for `Cc1c(-c2ccccc2)cccc1-c1ccn2c(-n3ccc(C(=O)NCC(=O)O)n3)cnc2c1` [Example 45, (1-(7-(2-methyl-[1,1′-biphenyl]-3-yl)imidazo[1,2-a]pyridin-3-yl)-1H-pyrazole-3-carbonyl)glycine] reads 100 to 1000 nM; that for `CC(=O)NCCNC(=O)c1ccn(-c2cnc3cc(-c4cccc(-c5ccccc5)c4C)ccn23)n1` [Example 46, N-(2-acetamidoethyl)-1-(7-(2-methyl-[1,1′-biphenyl]-3-yl)imidazo[1,2-a]pyridin-3-yl)-1H-pyrazole-3-carboxamide], 100 to 1000 nM; that for `Cc1c(-c2ccccc2)cccc1-c1ccn2c(-n3ccc(C(=O)NCCC(=O)O)n3)cnc2c1` [Example 47, N 3-(1-(7-(2-methyl-[1,1′-biphenyl]-3-yl)imidazo[1,2-a]pyridin-3-yl)-1H-pyrazole-3-carboxamido)propanoic acid], 100 to 1000 nM. `Cc1c(-c2ccc3c(c2)OCCO3)cccc1-c1ccn2c(-n3ccc(C(=O)NCC(=O)O)n3)cnc2c1` [Example 48, (1-(7-(3-(2,3-dihydrobenzo[b][1,4]dioxin-6-yl)-2-methylphenyl)imidazo[1,2-a]pyridin-3-yl)-1H-pyrazole-3-carbonyl)glycine] returned a 50% inhibitory concentration (IC50) of 10 to 100 nM.

Molecule `Cc1c(-c2ccc3c(c2)OCCO3)cccc1-c1ccn2c(-n3ccc(C(=O)NCC(=O)O)n3)nnc2c1` [Example 49, (1-(7-(3-(2,3-dihydrobenzo[b][1,4]dioxin-6-yl)-2-methylphenyl)-[1,2,4]triazolo[4,3-a]pyridin-3-yl)-1H-pyrazole-3-carbonyl)glycine] had an IC50 of 10 to 100 nM. The result for `Cc1c(-c2ccccc2)cccc1-c1ccn2c(C#CCN3CCC[C@@H]3C(=O)O)cnc2c1` [Example 50, (3-(7-(2-methyl-[1,1′-biphenyl]-3-yl)imidazo[1,2-a]pyridin-3-yl)prop-2-yn-1-yl)-D-proline] reads 100 to 1000 nM.

`Cc1c(-c2ccccc2)cccc1-c1ccn2c(C#CCN3CCC[C@H]3C(=O)O)cnc2c1` [Example 51, (3-(7-(2-methyl-[1,1′-biphenyl]-3-yl)imidazo[1,2-a]pyridin-3-yl)prop-2-yn-1-yl)-L-proline]: the IC50 is 100 to 1000 nM. As for `Cc1c(-c2ccccc2)cccc1-c1ccn2c(-c3ccc(CN4CCCCC4C(=O)O)cc3)nnc2c1` (stereo not drawn) [Example 52, 1-(4-(7-(2-methyl-[1,1′-biphenyl]-3-yl)-[1,2,4]triazolo[4,3-a]pyridin-3-yl)benzyl)piperidine-2-carboxylic acid], the figure is 100 to 1000 nM. The result for `Cc1c(-c2ccccc2)cccc1-c1ccn2c(-c3ccc(CN4CCC[C@H]4C(=O)O)cc3)nnc2c1` [Example 53, (4-(7-(2-methyl-[1,1′-biphenyl]-3-yl)-[1,2,4]triazolo [4,3-a]pyridin-3-yl)benzyl)proline] reads 100 to 1000 nM; that for `Cc1c(-c2ccccc2)cccc1-c1ccn2c(-c3ccc(CNCCO)cc3)nnc2c1` [Example 54, 2-((4-(7-(2-methyl-[1,1′-biphenyl]-3-yl)-[1,2,4]triazolo[4,3-a]pyridin-3-yl)benzyl)amino)ethan-1-ol], 100 to 1000 nM; that for `Cc1c(-c2ccccc2)cccc1-c1ccn2c(-c3ccc(CNCC(O)CC(=O)O)cc3)nnc2c1` (stereo not drawn) [Example 55, 3-hydroxy-4-((4-(7-(2-methyl-[1,1′-biphenyl]-3-yl)-[1,2,4]triazolo[4,3-a]pyridin-3-yl)benzyl)amino)butanoic acid], 100 to 1000 nM.

Consider `Cc1c(-c2ccc3c(c2)OCCO3)cccc1-c1ccn2c(-c3ccc(CN4CCC[C@@H]4C(=O)O)cc3)nnc2c1` [Example 56, (4-(7-(3-(2,3-dihydrobenzo[b][1,4]dioxin-6-yl)-2-methylphenyl)-[1,2,4]triazolo[4,3-a]pyridin-3-yl)benzyl)-D-proline], for which the half-maximal inhibitory concentration (IC50) is 10 to 100 nM. In turn, `Cc1c(-c2ccc3c(c2)OCCO3)cccc1-c1ccn2c(-c3ccc(CN4CCC[C@H]4C(=O)O)cc3)nnc2c1` [Example 57, (4-(7-(3-(2,3-dihydrobenzo[b][1,4]dioxin-6-yl)-2-methylphenyl)-[1,2,4]triazolo[4,3-a]pyridin-3-yl)benzyl)-L-proline] yielded an IC50 of 10 to 100 nM. In turn, `Cc1c(-c2ccccc2)cccc1-c1ccn2c(-c3ccc(CN4CCC[C@@H]4C(=O)O)cc3)nnc2c1` [Example 58, (4-(7-(2-methyl-[1,1′-biphenyl]-3-yl)-[1,2,4]triazolo[4,3-a]pyridin-3-yl)benzyl)-D-proline] gave an IC50 of 10 to 100 nM.
